Data set [1] has as its system human phosphodiesterase III (PDE III). The data set is described as follows: PDE III inhibition. Type of data set: biochemical. The note with it: more potent than anagrelide. From the text: In early volunteer trials, the most frequently reported adverse effects AEs other than headache were palpitations, postural dizziness and nausea. During patient studies, the most frequently reported drug-related AEs were headache, palpitations, oedema/fluid retention, nausea/vomiting, diarrhea, dizziness and abdominal pain. These effects are all likely to arise from the secondary, cardiovascular pharmacology associated with anagrelide resulting from its inhibitory effects on human phosphodiesterase III (PDE III). […] Inhibition of myocardial PDE III leads to positive inotropy (increasing of the force of contractions of the heart), increased chronotropy (increase in heart rate), and peripheral vasodilatation. Such cardiovascular manifestations of this inhibition are typically seen with the classical positive inotropes, milrinone and enoximone, and exploited in the short-term acute treatment of congestive heart failure. However, in the treatment of a so-called silent disease (i.e., asymptomatic) such as ET, the cardiovascular side-effects of palpitations and tachycardia associated with anagrelide limit its utility and a significant proportion of patients—reportedly between 25 and 50%—fail to tolerate the drug during long term treatment.

A short description of data set [2]: Pharmacokinetics and exposure in humans. Format: in vivo, human. The note with it: typical exposures, greater than anagrelide. The source says:
The PDE III inhibitory properties of anagrelide are quite distinct from its platelet lowering anti-megakaryocytic effects. Indeed studies have shown no correlation between potency as a PDE III inhibitor and anti-megakaryocytic effects for anagrelide and its principal pharmacologically active metabolite, 3-hydroxyanagrelide (3-OH anagrelide or 3-HA, formerly known as SPD604 or BCH24426). […] Anagrelide's active metabolite, 3-HA, is present in vivo in amounts greatly exceeding those of the parent drug with typical exposures being 2-3 fold greater. Thus by implication 3-OH anagrelide is likely to be a major contributor to the pharmacological actions of the drug.
In addition to the unwanted cardiovascular effects associated with PDE III inhibition, the consequent elevation of cAMP can result in an anti-aggregatory effect. While initially this property may appear to be beneficial in essential thrombocythemia patients predisposed to greater thrombotic risk, such anti-platelet effects, in excess, could have haemorrhagic consequences and on balance may not be desirable. […]

The test system of data set [3] is TPO-induced megakaryocytopoiesis. The note with it: cited from earlier work.
The conditions of data set [4]: cited from earlier work.
In data set [5] the test system is erythroid or myelomonocytic differentiation. The note with it: stimulated by erythropoietin or granulocyte-macrophage colony-stimulating factor; cited from earlier work.
Data set [6] deals with human phosphodiesterase III (PDE III). The note with it: cited from earlier work.

Each structure is given as a SMILES string.

With `O=C1NC2=Nc3ccc(Cl)c(Cl)c3CN2C1O` (stereo not drawn) [3-hydroxyanagrelide], in data set [1], the “potency as PDE III inhibitor relative to anagrelide” value was “over 40 fold”. The “exposure in vivo relative to parent drug” value in data set [2] is on record as 2-3 fold. Moreover, in data set [3] (compared with anagrelide), the “potency in inhibition of megakaryocytopoiesis relative to parent drug” value is “no more potent than the parent drug”. Besides, in data set [4] (typical), the half-life is 2.5 h.

For the compound `O=C1CN2Cc3c(ccc(Cl)c3Cl)N=C2N1` [Anagrelide, 6,7-dichloro-1,5-dihydroimidazo[2,1-b]-quinazolin-2(3H)-one], the IC50 in data set [3] (estimated, in vitro human megakaryocytopoiesis, read-out: IC50 for inhibition of TPO-induced megakaryocytopoiesis) is ~0.026 µM; in data set [6] it was ~0.029 µM. Also, the “effect on erythroid or myelomonocytic differentiation” value in data set [5] is given as “does not affect”. Besides, the first pass effect in data set [4] (in vivo) is > 50%.

In the case of `Cc1[nH]c(=O)c(C#N)cc1-c1ccncc1` [milrinone], the IC50 in data set [6] was 0.17 to 0.35 µM.

The values are drawn from US20110071174A1, “SUBSTITUTED QUINAZOLINES” (Shire LLC, priority 2008, published 2011).
